Assay type in all cases: cell-based, human
Test [1] has as its system IL-6. Nature of the test: CC-93269-induced IL-6 secretion, co-culture of PBMCs and K562-BCMA cells (MSD). The conditions noted are these: 24 hours; for secretion of IL-6 associated with CC-93269 activity, PBMCs + K562-BCMA: pre-treatment 1000 nM lenalidomide, 100 nM pomalidomide, 10 nM iberdomide or 1 nM Compound 1, T-cells to target cells 5:1. The method, then:
(§1) Fresh PBMCs were isolated from healthy volunteers, the percentage of CD3+ T-cells (total) was quantified by flow cytometry, and the PBMCs were treated with 1 nM Compound 1 (CC-92480) or control DMSO overnight. The next morning, target cells (K562-BCMA, which overexpress surface BCMA at a very high level) or control cells (K562-MCB, no BCMA expression) were added to the wells at a ratio of 5:1, T-cells to target cells, followed by addition of CC-93269 at the indicated concentrations. At 6-, 24- and 48-hours post-incubation, the cell culture media was collected and levels of IL-6 in the supernatant were assessed using an MSD assay.
The circles indicate independent donors and the bars indicate median values; not all donors are shown because a data cut-off for the bottom ~10% of IL-6 concentrations, below 200 pg/ml, was used to eliminate small changes that could skew the result and to increase confidence in results.
as §1, with “the indicated concentrations of IMiD/CELMoD agents” for “1 nM Compound 1 (CC-92480)”, “level)” for “level) or control cells (K562-MCB, no BCMA expression)”, “24 hours” for “6-, 24- and 48-hours”
Fresh PBMCs were isolated from the blood (buffy coat) of healthy human volunteers by Ficoll based cell separation. The percentage of CD3+ T-cells (total) in the PBMCs was quantified by flow cytometry. The isolated PBMCs were seeded in 12-well plates at a concentration of 1.5×10^6 cells/ml and treated with 1 nM Compound 1 (CC-92480), 1000 nM lenalidomide, 100 nM pomalidomide, 10 nM iberdomide, or control DMSO overnight (~17 hours).
After overnight incubation, target K562-BCMA cells (overexpress surface BCMA at a very high level) or control K562-MCB cells (no BCMA expression) were added to the wells at a ratio of 5:1, T-cells to target cells. K562-BCMA and K562-MCB are an isogenic pair that are derived from a chronic myelogenous leukemia (CML,) cell line. CC-93269 was added to the co-culture at various concentrations and incubated. CC-93269 is an anti-BCMA anti-CD3 bispecific T cell-engaging antibody and is also referred to herein as 42-TCBcv.
At 6, 24 and 48 hours post-incubation, the cell culture media was collected from all samples, spun down at 300 g for 5 minutes to remove cells and the supernatant was subjected to cytokine analysis to quantify secreted levels of IL-6 using an MSD assay.

Test [2] concerns IL-6. Nature of the test: LPS-stimulated PBMC cytokine production, multiplex cytokine analysis: IL-6. The following applies: Homo sapiens, PBMC, PBMC 2×10^6 cells/ml, compound 1 hour, then 1 ng/ml LPS 18 hours. How it is done:
(§2) Peripheral blood mononuclear cells (PBMCs) were isolated from the blood of healthy human donors by Ficoll cell separation. […] Supernatant samples were subjected to multiplex cytokine analysis (Luminex IS100 instrument) to quantify secreted levels of IL-6, IL-8, IL1-beta (IL-1β), GM-CSF, MDC, MIP-1alpha (MIP-1α), MIP-1beta (MIP-1β) and TNF-alpha (TNF-α) (see e.g. FIGS. 7A-C). IC50 (half maximal inhibitory concentration) values were calculated to measure the potency of each IMiD compound in inhibiting LPS-stimulated secretion of each cytokine (see Table 25).

The test system of a further test is TNF-α. Nature of the test: LPS-stimulated PBMC cytokine production, multiplex cytokine analysis: TNF-α. The conditions noted are these: Homo sapiens, PBMC, PBMC 2×10^6 cells/ml, compound 1 hour, then 1 ng/ml LPS 18 hours. The method, then:
(§3) Peripheral blood mononuclear cells (PBMCs) were isolated from the blood of healthy human donors by Ficoll cell separation. The PBMCs were seeded at a concentration of 2×10^6 cells/ml and treated for 1 hour at 37° C. with various concentrations of IMiD compounds or control DMSO (0.25%), before stimulation with 1 ng/ml LPS for 18 hours at 37° C.
(§4) Supernatant samples were subjected to multiplex cytokine analysis (Luminex IS100 instrument) to quantify secreted levels of IL-6, IL-8, IL1-beta (IL-1β), GM-CSF, MDC, MIP-1alpha (MIP-1α), MIP-1beta (MIP-1β) and TNF-alpha (TNF-α) (see e.g. FIGS. 7A-C).
(§5) IC50 (half maximal inhibitory concentration) values were calculated to measure the potency of each IMiD compound in inhibiting LPS-stimulated secretion of each cytokine (see Table 25).

Test [3] has as its system IL-6, IL-8, IL-1β, GM-CSF, MDC, MIP-1α, MIP-1β and TNF-α. Nature of the test: LPS-induced secretion of proinflammatory cytokines from PBMCs (whole multiplex panel, result in words). The following applies: pre-treatment 1 hour, 1 ng/ml LPS 18 hours. How it is done: Peripheral blood mononuclear cells (PBMCs) from healthy volunteers were seeded at a concentration of 2×10^6 cells/ml and treated with the indicated concentrations of IMiD compounds or control DMSO (0.25%) for 1 hour, before stimulation with 1 ng/ml LPS. After 18 hours, proinflammatory cytokine levels in the supernatant were assessed by multiplex cytokine analysis.
as §3, §4

A further test relates to IL-8. The test can be described thus: LPS-stimulated PBMC cytokine production, multiplex cytokine analysis: IL-8. The following applies: Homo sapiens; PBMC 2×10^6 cells/ml, compound 1 hour, then 1 ng/ml LPS 18 hours. The method, then: as §3, §4, §5
The next test has as its system IL-1β. The test can be described thus: LPS-stimulated PBMC cytokine production, multiplex cytokine analysis: IL-1β. The conditions noted are these: Homo sapiens, PBMC, PBMC 2×10^6 cells/ml, compound 1 hour, then 1 ng/ml LPS 18 hours. The method, then:
as §2

Molecules are shown by their SMILES. Entries after “also recorded” stand apart in the source; their conditions may differ.

Turning to `N#Cc1ccc(N2CCN(Cc3ccc(COc4cccc5c4CN(C4CCC(=O)NC4=O)C5=O)cc3)CC2)c(F)c1` (stereo not drawn) [Compound 1, 4-(4-(4-(((2-(2,6-dioxopiperidin-3-yl)-1-oxoisoindolin-4-yl)oxy)methyl)benzyl)piperazin-l-yl)-3-fluorobenzonitrile], the “median reduction in IL-6 levels relative to DMSO control” value in the test on IL-6 [1] (1 nM Compound 1 pre-treatment, 10 ng/ml CC-93269, PBMCs from 15 healthy donors) is on record as “about two-fold”. Further, the “IL-6 secretion at CC-93269 concentrations up to 10,000 ng/mL, PBMCs + K562-BCMA” value in the test with IL-6 [1] (Compound 1 pre-treatment) is “suppresses”. In the test with IL-6 [1], the “secretion of IL-6 associated with CC-93269 activity, PBMCs + K562-BCMA” value (“secretion of IL-6 associated” for short) is reported as “diminished/attenuated; also recorded: suppressed”.

Broadly, the IC50 is the concentration needed to halve the response being measured. Low values mean inhibition by little substance, high ones a need for much substance. In the case of `O=C1CC[C@H](N2Cc3c(OCc4ccc(CN5CCOCC5)cc4)cccc3C2=O)C(=O)N1` [Iberdomide, (S)-3-(4-((4-(morpholinomethyl)benzyl)oxy)-1-oxoisoindolin-2-yl)piperidine-2,6-dione], the IC50 is 0.0038 µM with IL-6 [2], 0.00059 µM in the test with TNF-α, more than 10 µM in the test with IL-8 and 0.00046 µM with IL-1β. For the same compound, the “LPS-induced secretion of proinflammatory cytokines from PBMCs (effect in words)” value (from here on “LPS-induced secretion”) in test [3] is “inhibited”. Besides, the “secretion of IL-6 associated” value with IL-6 [1] is recorded as “diminished/attenuated; also recorded: suppressed”.

For `Nc1cccc2c1CN(C1CCC(=O)NC1=O)C2=O` (stereo not drawn) [Lenalidomide, 3-(4-amino-1-oxo-2,3-dihydro-1H-isoindol-2-yl) piperidine-2,6-dione], the IC50 was 1.2 µM in the test with IL-6 [2], 0.22 µM in the test on TNF-α, more than 10 µM with IL-8 and 0.39 µM in the test with IL-1β. For the same compound, the “LPS-induced secretion” value in test [3] is given as “inhibited”. Moreover, the “secretion of IL-6 associated” value with IL-6 [1] was “diminished/attenuated; also recorded: suppressed”.

Regarding `Nc1cccc2c1C(=O)N(C1CCC(=O)NC1=O)C2=O` (stereo not drawn) [Pomalidomide, 4-amino-2-(2,6-dioxopiperidine-3-yl)isoindoline-1,3-dione], the IC50 was determined as 0.059 µM with IL-6 [2], 0.033 µM with TNF-α, 2.9 µM with IL-8 and 0.047 µM in the test on IL-1β. Besides, the “LPS-induced secretion” value in test [3] is recorded as “inhibited”. In addition, the “secretion of IL-6 associated” value in the test on IL-6 [1] is recorded as “diminished/attenuated; also recorded: suppressed”.

These data come from US20230172923A1, “METHODS OF TREATING CYTOKINE-RELATED ADVERSE EVENTS” (BRISTOL-MYERS SQUIBB COMPANY, priority 2020, published 2023).
